This is an account of results in ChEMBL document CHEMBL1201862, “PubChem BioAssay data set” (2004).

Molecules are shown by their SMILES.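 Protocol summary: plate cells (96-well), add compound at 5 concentrations, incubate 48 h, interpolate endpoints linearly. Here, GI50 denotes the concentration required for 50% inhibition of growth.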 Calls of active or inactive are those of the source. Rule as the data show it: active = GI50 up to about 1.1 µM and inactive = higher.

Some test systems named below: UACC-62; NCI/ADR-RES; SK-MEL-2; KM12; A498; UACC-257; ACHN; SNB-75; 786-0; Hs-578T; UO-31; OVCAR-8; HCT-116; OVCAR-4; SR; HT-29; CAKI-1; PC-3; RPMI-8226.
Holding throughout (assay): growth of human tumour cells (NCI), 48 h

On to `c1ccc(C2C(=P(c3ccccc3)(c3ccccc3)c3ccccc3)P=PC2[P+](c2ccccc2)(c2ccccc2)c2ccccc2)cc1.c1ccc([B-](c2ccccc2)(c2ccccc2)c2ccccc2)cc1` (stereo not given), for which the GI50 is 2.44 µM (inactive) with UACC-62; 3.48 µM (inactive) with NCI/ADR-RES; 0.675 µM (active) with SK-MEL-2; 0.351 µM (active) in the assay on KM12; 0.818 µM (active) with A498; 1.12 µM (inactive) in the assay with UACC-257. The GI50 with ACHN was 0.701 µM (active); in the assay with SNB-75, 0.582 µM (active); with 786-0 it was 0.289 µM (active); with Hs-578T, 0.679 µM (active); in the assay with UO-31 it was 18.8 µM (inactive); in the assay on OVCAR-8, 0.252 µM (active). Besides, the GI50 is 0.0841 µM (active) in the assay with HCT-116; 0.652 µM (active) in the assay with OVCAR-4; 0.966 µM (active) in the assay on SR; 0.354 µM (active) in the assay with HT-29; 3.66 µM (inactive) in the assay with CAKI-1; 0.471 µM (active) with PC-3. In addition, in the assay on RPMI-8226, the GI50 was 0.278 µM (active).
Take `NCCCNC1(c2cc3ccccc3s2)CCCCC1`: the GI50 with UACC-62 was 1.92 µM (inactive); in the assay with NCI/ADR-RES, 13.5 µM (inactive); in the assay on SK-MEL-2, 1.79 µM (inactive); in the assay on KM12, 3.22 µM (inactive); in the assay with A498 it was 2.72 µM (inactive); in the assay with UACC-257, 1.64 µM (inactive). Moreover, the GI50 is 11.9 µM (inactive) in the assay on ACHN; 10.9 µM (inactive) in the assay on SNB-75; 2 µM (inactive) with 786-0; 11.9 µM (inactive) with Hs-578T; 1.93 µM (inactive) in the assay on UO-31; 9.62 µM (inactive) in the assay on OVCAR-8. Also, the GI50 is 2.06 µM (inactive) in the assay with HCT-116; 11.1 µM (inactive) in the assay with OVCAR-4; 1.77 µM (inactive) in the assay on SR; 2.95 µM (inactive) with HT-29; 8.43 µM (inactive) with CAKI-1; 7.13 µM (inactive) in the assay with PC-3. In addition, in the assay on RPMI-8226, the GI50 was 1.91 µM (inactive).
For `O=C1c2cc([N+](=O)[O-])sc2C(=O)c2cc([N+](=O)[O-])sc21`, the GI50 was 1.87 µM (inactive) in the assay with UACC-62; 3.62 µM (inactive) with NCI/ADR-RES; 6.7 µM (inactive) in the assay on SK-MEL-2; 3.61 µM (inactive) in the assay on KM12; 16.2 µM (inactive) in the assay with A498; 5.16 µM (inactive) in the assay on UACC-257. The GI50 is 3.85 µM (inactive) with ACHN; 12.6 µM (inactive) in the assay with SNB-75; 2.52 µM (inactive) in the assay on 786-0; 9.18 µM (inactive) with Hs-578T; 3.19 µM (inactive) in the assay with UO-31; 5.79 µM (inactive) in the assay with OVCAR-8. Moreover, the GI50 in the assay with HCT-116 was 1.67 µM (inactive); in the assay with OVCAR-4, 4.51 µM (inactive); in the assay on SR, 0.268 µM (active); in the assay with HT-29 it was 3.24 µM (inactive); in the assay on CAKI-1, 3.76 µM (inactive); in the assay on PC-3 it was 4.6 µM (inactive). In addition, in the assay on RPMI-8226, the GI50 was 0.535 µM (active).
Take `Cc1cccc2c(N)c3cccc(C(=O)NCC[N+](C)(C)Cc4ccccc4[N+](=O)[O-])c3nc12`: the GI50 was 8.05 µM (inactive) in the assay on UACC-62; 8.67 µM (inactive) in the assay on NCI/ADR-RES; 25.8 µM (inactive) with SK-MEL-2; 13.4 µM (inactive) in the assay with KM12; 8.97 µM (inactive) in the assay on A498; 24.3 µM (inactive) in the assay with UACC-257. Besides, the GI50 in the assay with ACHN was 2.31 µM (inactive); in the assay with SNB-75, 1.64 µM (inactive); in the assay on 786-0, 4.22 µM (inactive); in the assay with Hs-578T, 6.35 µM (inactive); with UO-31, 13.4 µM (inactive); with OVCAR-8, 5.89 µM (inactive). Also, the GI50 with HCT-116 was 5.92 µM (inactive); in the assay with OVCAR-4, 8.32 µM (inactive); with SR, 0.258 µM (active); in the assay on HT-29, 5.22 µM (inactive); with CAKI-1 it was 5.71 µM (inactive); in the assay on PC-3 it was 7.14 µM (inactive). In addition, the GI50 in the assay with RPMI-8226 was 4.84 µM (inactive).
As to `O=C1c2ccccc2C2=Cc3ccccc3C(O)N12` (stereo not given), the GI50 is 24.9 µM (inactive) with UACC-62; > 100 µM (inactive) with NCI/ADR-RES; > 100 µM (inactive) in the assay with SK-MEL-2; > 100 µM (inactive) with KM12; > 100 µM (inactive) with A498; > 100 µM (inactive) with UACC-257. The GI50 with ACHN was > 100 µM (inactive); in the assay on SNB-75, 92.5 µM (inactive); with 786-0, > 100 µM (inactive); with Hs-578T it was 68.4 µM (inactive); in the assay with UO-31 it was 18.1 µM (inactive); with OVCAR-8, > 100 µM (inactive). Also, the GI50 in the assay on HCT-116 was > 100 µM (inactive); in the assay with OVCAR-4, > 100 µM (inactive); in the assay on SR, 25.8 µM (inactive); with HT-29, > 100 µM (inactive); in the assay with CAKI-1 it was 22.7 µM (inactive); in the assay on PC-3, > 100 µM (inactive). The GI50 with RPMI-8226 was 55.3 µM (inactive).
For the molecule `CC(=O)OCC1OC(n2c3c(cc(C#N)c2=S)CCCCCC3)C(OC(C)=O)C(OC(C)=O)C1OC(C)=O` (stereo not given), the GI50 in the assay on UACC-62 was 54.7 µM (inactive); in the assay on NCI/ADR-RES it was > 100 µM (inactive); in the assay on SK-MEL-2 it was > 100 µM (inactive); in the assay with KM12, > 100 µM (inactive); in the assay on A498 it was > 100 µM (inactive); with UACC-257, > 100 µM (inactive). Further, the GI50 in the assay on ACHN was > 100 µM (inactive); with SNB-75, 27.2 µM (inactive); in the assay on 786-0, 99.8 µM (inactive); with Hs-578T it was 97.9 µM (inactive); in the assay on UO-31, > 100 µM (inactive); with OVCAR-8, 69.8 µM (inactive). In addition, the GI50 was 37.8 µM (inactive) in the assay with HCT-116; > 100 µM (inactive) in the assay with OVCAR-4; 36.8 µM (inactive) in the assay with SR; 41.2 µM (inactive) with HT-29; > 10 µM (inactive) in the assay on CAKI-1; > 100 µM (inactive) with PC-3. The GI50 with RPMI-8226 was 55.5 µM (inactive).
For the molecule `O=C(Nc1ccc(Cl)c(C(F)(F)F)c1)C(=O)c1c(O)c2ccccc2oc1=O`, the GI50 in the assay with UACC-62, with NCI/ADR-RES, with SK-MEL-2, in the assay on KM12, with A498 and in the assay on UACC-257 was > 100 µM (inactive) each time. Further, the GI50 in the assay on ACHN, in the assay with SNB-75, with 786-0, with Hs-578T, with UO-31 and with OVCAR-8 was > 100 µM (inactive) throughout. In addition, the GI50 in the assay on HCT-116, with OVCAR-4, in the assay on SR, in the assay on HT-29, in the assay with CAKI-1 and in the assay with PC-3 was > 100 µM (inactive) in each case. Also, the GI50 in the assay on RPMI-8226 was > 100 µM (inactive).
As to `CC(=O)OC[C@]1(C(=O)C(O)c2ccoc2)[C@H](C)CC[C@@]23COC(=O)C2=CCC[C@@H]31` (stereo not given in full), the GI50 in the assay with UACC-62, in the assay on NCI/ADR-RES, in the assay on SK-MEL-2, in the assay with KM12, in the assay on A498 and in the assay on UACC-257 was > 10 µM (inactive) throughout. For the same molecule, the GI50 in the assay with ACHN, in the assay on SNB-75, in the assay with 786-0, in the assay on Hs-578T, with UO-31 and in the assay with OVCAR-8 was > 10 µM (inactive) in each case. Besides, the GI50 in the assay on HCT-116, with OVCAR-4, in the assay on SR, in the assay on HT-29, in the assay with CAKI-1 and with PC-3 was > 10 µM (inactive) throughout. In addition, the GI50 in the assay on RPMI-8226 was > 10 µM (inactive).
Turning to `CC[C@@]1(O)C(=O)OCc2c1cc1n(c2=O)Cc2c-1nc1ccccc1c2/C=N\NC(=O)C(N)=O`, the GI50 in the assay on UACC-62 was 0.0332 µM (active); in the assay on NCI/ADR-RES, 1.6 µM (inactive); in the assay on SK-MEL-2, 29 µM (inactive); in the assay on KM12 it was > 92.3 µM (inactive); in the assay on A498 it was 0.457 µM (active); in the assay on UACC-257 it was 14.4 µM (inactive). Also, the GI50 in the assay with ACHN is < 0.0151 µM (active); in the assay on SNB-75, 0.558 µM (active); with 786-0 it was 0.0705 µM (active); in the assay on Hs-578T, 56.9 µM (inactive); in the assay with UO-31, 0.284 µM (active); with OVCAR-8 it was 0.248 µM (active). Also, the GI50 was 0.161 µM (active) with HCT-116; 38.3 µM (inactive) in the assay on OVCAR-4; < 0.01 µM (active) with SR; 4.36 µM (inactive) in the assay on HT-29; 0.0655 µM (active) in the assay with CAKI-1; 4.36 µM (inactive) in the assay with PC-3. Moreover, the GI50 in the assay on RPMI-8226 is 0.61 µM (active).
`COC(=O)C12CCC(C(F)(F)C1=O)C2(C)C` (stereo not given): the GI50 with UACC-62, in the assay with NCI/ADR-RES, with SK-MEL-2, with KM12, in the assay with A498 and in the assay on UACC-257 was > 100 µM (inactive) each time. For the same molecule, the GI50 with ACHN, in the assay on SNB-75, in the assay on 786-0, with Hs-578T, in the assay on UO-31 and in the assay with OVCAR-8 was > 100 µM (inactive) throughout. The GI50 in the assay with HCT-116, in the assay with OVCAR-4, in the assay with SR, with HT-29, in the assay with CAKI-1 and with PC-3 was > 100 µM (inactive) in each case. The GI50 in the assay on RPMI-8226 is > 100 µM (inactive).
